In ChEMBL document CHEMBL1201862, “PubChem BioAssay data set” (2004):
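Exposure lasted 48 hours, with cells grown in 96-well plates and compounds tested at five concentrations. Abbreviation: GI50, concentration required for 50% inhibition of growth.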 Active and inactive are the calls of the source. Rule as the data show it: active = GI50 up to about 1.1 µM and inactive = higher.

Key:
Experiment in all cases: NCI anticancer screen, dose series, 48 h
[1] = system: HCT-116
[2] = system: SK-OV-3
[3] = system: SN12C
[4] = system: MCF7
[5] = system: OVCAR-3
[6] = system: PC-3
[7] = system: HCC 2998
[8] = system: ACHN
[9] = system: UACC-257
[10] = system: UACC-62
[11] = system: HL-60
[12] = system: NCI/ADR-RES
[13] = system: A549
[14] = system: Hs-578T
[15] = system: OVCAR-8
[16] = system: SK-MEL-2
[17] = system: MOLT-4
[18] = system: RXF 393
[19] = system: LOX IMVI
[20] = system: SK-MEL-5
[21] = system: UO-31
[22] = system: KM12
[23] = system: SNB-19
[24] = system: SW-620
[25] = system: NCI-H522
[26] = system: Malme-3M
[27] = system: CAKI-1
[28] = system: SK-MEL-28
[29] = system: COLO 205
[30] = system: MDA-N
[31] = system: OVCAR-5
[32] = system: A498
[33] = system: SNB-75
[34] = system: MDA-MB-231
[35] = system: DU-145
[36] = system: T47D
[37] = system: TK-10
[38] = system: SF-295
[39] = system: SF-268
[40] = system: IGROV-1
[41] = system: RPMI-8226
[42] = system: HOP-62
[43] = system: NCI-H23
[44] = system: M14
[45] = system: MDA-MB-435
[46] = system: 786-0
[47] = system: BT-549
[48] = system: HT-29
[49] = system: EKVX
[50] = system: K562
[51] = system: HCT-15
[52] = system: U-251
[53] = system: SF-539
[54] = system: NCI-H226
[55] = system: OVCAR-4
[56] = system: NCI-H460
[57] = system: CCRF-CEM
[58] = system: HOP-92

## N#Cc1nnn(-c2ccccc2)c1O
[1]
  GI50: > 100 µM (inactive)
[2]
  GI50: > 100 µM (inactive)
[3]
  GI50: > 100 µM (inactive)
[4]
  GI50: > 100 µM (inactive)
[5]
  GI50: > 100 µM (inactive)
[6]
  GI50: > 100 µM (inactive)
[7]
  GI50: > 100 µM (inactive)
[8]
  GI50: > 100 µM (inactive)
[9]
  GI50: > 100 µM (inactive)
[10]
  GI50: > 100 µM (inactive)
[11]
  GI50: > 100 µM (inactive)
[12]
  GI50: > 100 µM (inactive)
[13]
  GI50: > 100 µM (inactive)
[14]
  GI50: > 100 µM (inactive)
[15]
  GI50: > 100 µM (inactive)
[16]
  GI50: > 100 µM (inactive)
[17]
  GI50: > 100 µM (inactive)
[18]
  GI50: > 100 µM (inactive)
[19]
  GI50: > 100 µM (inactive)
[20]
  GI50: > 100 µM (inactive)
[21]
  GI50: > 100 µM (inactive)
[22]
  GI50: > 100 µM (inactive)
[23]
  GI50: > 100 µM (inactive)
[24]
  GI50: > 100 µM (inactive)
[25]
  GI50: > 100 µM (inactive)
[26]
  GI50: > 100 µM (inactive)
[27]
  GI50: > 100 µM (inactive)
[28]
  GI50: > 100 µM (inactive)
[29]
  GI50: > 100 µM (inactive)
[30]
  GI50: > 100 µM (inactive)
[31]
  GI50: > 100 µM (inactive)
[32]
  GI50: > 100 µM (inactive)
[33]
  GI50: > 100 µM (inactive)
[34]
  GI50: > 100 µM (inactive)
[35]
  GI50: > 100 µM (inactive)
[36]
  GI50: > 100 µM (inactive)
[37]
  GI50: > 100 µM (inactive)
[38]
  GI50: > 100 µM (inactive)
[39]
  GI50: > 100 µM (inactive)
[40]
  GI50: > 100 µM (inactive)
[41]
  GI50: > 100 µM (inactive)
[42]
  GI50: > 100 µM (inactive)
[43]
  GI50: > 100 µM (inactive)
[44]
  GI50: > 100 µM (inactive)
[45]
  GI50: > 100 µM (inactive)
[46]
  GI50: > 100 µM (inactive)
[47]
  GI50: > 100 µM (inactive)
[48]
  GI50: > 100 µM (inactive)
[49]
  GI50: > 100 µM (inactive)
[50]
  GI50: > 100 µM (inactive)
[51]
  GI50: > 100 µM
[52]
  GI50: > 100 µM (inactive)
[53]
  GI50: > 100 µM (inactive)
[54]
  GI50: > 100 µM (inactive)
[55]
  GI50: > 100 µM (inactive)

## CCO/C=N/C1=C(C#N)C(c2ccc(OC)c(OC)c2)c2c(-c3ccccc3)nn(-c3ccccc3)c2O1 (stereo unspecified)
[56]
  GI50: > 100 µM (inactive)
[1]
  GI50: 13.1 µM (inactive)
[57]
  GI50: 2.23 µM (inactive)
[2]
  GI50: 21.2 µM (inactive)
[3]
  GI50: 14.8 µM (inactive)
[4]
  GI50: 16.6 µM (inactive)
[5]
  GI50: 16.1 µM (inactive)
[6]
  GI50: 13.6 µM (inactive)
[7]
  GI50: > 100 µM (inactive)
[8]
  GI50: 13.2 µM (inactive)
[9]
  GI50: > 100 µM (inactive)
[10]
  GI50: 14.4 µM (inactive)
[11]
  GI50: 3.21 µM (inactive)
[12]
  GI50: 15.6 µM (inactive)
[13]
  GI50: 18.3 µM (inactive)
[14]
  GI50: 20.5 µM (inactive)
[15]
  GI50: 19.2 µM (inactive)
[16]
  GI50: 18.5 µM (inactive)
[17]
  GI50: 8.02 µM (inactive)
[18]
  GI50: 12.2 µM (inactive)
[19]
  GI50: 15.4 µM (inactive)
[20]
  GI50: 12 µM (inactive)
[21]
  GI50: 17.7 µM (inactive)
[22]
  GI50: 8.02 µM (inactive)
[23]
  GI50: 15.9 µM (inactive)
[58]
  GI50: 13.4 µM (inactive)
[24]
  GI50: 11.8 µM (inactive)
[25]
  GI50: 10.6 µM (inactive)
[26]
  GI50: 19 µM (inactive)
[27]
  GI50: 17 µM (inactive)
[28]
  GI50: 15 µM (inactive)
[29]
  GI50: 13.1 µM (inactive)
[30]
  GI50: 18.7 µM (inactive)
[31]
  GI50: 10.7 µM (inactive)
[33]
  GI50: 15.5 µM (inactive)
[34]
  GI50: 19.2 µM (inactive)
[35]
  GI50: 14.6 µM (inactive)
[36]
  GI50: 9.14 µM (inactive)
[38]
  GI50: 11.1 µM (inactive)
[39]
  GI50: 18.5 µM (inactive)
[40]
  GI50: 3.16 µM (inactive)
[41]
  GI50: 21.4 µM (inactive)
[42]
  GI50: 17.7 µM (inactive)
[43]
  GI50: 15.4 µM (inactive)
[44]
  GI50: 21.4 µM (inactive)
[45]
  GI50: 17 µM (inactive)
[46]
  GI50: 13.6 µM (inactive)
[47]
  GI50: 8.13 µM (inactive)
[48]
  GI50: 19.1 µM (inactive)
[49]
  GI50: 16.1 µM (inactive)
[50]
  GI50: 6.68 µM (inactive)
[51]
  GI50: 5.11 µM
[52]
  GI50: 12.7 µM (inactive)
[53]
  GI50: 8.67 µM (inactive)
[54]
  GI50: 11.3 µM (inactive)

## Cc1cc2nc(N3C(=O)/C(=C/c4ccc(Oc5ccccc5)cc4)N=C3c3ccccc3)sc2cc1C
[56]
  GI50: 32.1 µM (inactive)
[1]
  GI50: 40.6 µM (inactive)
[57]
  GI50: 26.7 µM (inactive)
[2]
  GI50: > 100 µM (inactive)
[3]
  GI50: > 100 µM (inactive)
[4]
  GI50: 24.2 µM (inactive)
[5]
  GI50: 59.3 µM (inactive)
[6]
  GI50: 40 µM (inactive)
[7]
  GI50: 40 µM (inactive)
[8]
  GI50: > 100 µM (inactive)
[9]
  GI50: 29.2 µM (inactive)
[10]
  GI50: 35.4 µM (inactive)
[11]
  GI50: 23.6 µM (inactive)
[12]
  GI50: 26.2 µM (inactive)
[13]
  GI50: 48.2 µM (inactive)
[14]
  GI50: 52.2 µM (inactive)
[15]
  GI50: 71.8 µM (inactive)
[16]
  GI50: 23.3 µM (inactive)
[17]
  GI50: 30.2 µM (inactive)
[18]
  GI50: 58.9 µM (inactive)
[19]
  GI50: 44.6 µM (inactive)
[20]
  GI50: 30.8 µM (inactive)
[21]
  GI50: 50.7 µM (inactive)
[22]
  GI50: 26.1 µM (inactive)
[23]
  GI50: > 100 µM (inactive)
[58]
  GI50: 95.5 µM (inactive)
[24]
  GI50: 28.2 µM (inactive)
[25]
  GI50: 24.6 µM (inactive)
[26]
  GI50: 70.6 µM (inactive)
[27]
  GI50: 50.5 µM (inactive)
[28]
  GI50: 69.7 µM (inactive)
[29]
  GI50: 20.9 µM (inactive)
[30]
  GI50: 25.2 µM (inactive)
[31]
  GI50: 58.1 µM (inactive)
[32]
  GI50: 54.7 µM (inactive)
[33]
  GI50: 62.2 µM (inactive)
[34]
  GI50: > 100 µM (inactive)
[35]
  GI50: > 100 µM (inactive)
[36]
  GI50: 42.3 µM (inactive)
[37]
  GI50: 59.4 µM (inactive)
[38]
  GI50: 33 µM (inactive)
[39]
  GI50: 63.8 µM (inactive)
[40]
  GI50: 37.4 µM (inactive)
[41]
  GI50: 24.4 µM (inactive)
[42]
  GI50: > 100 µM (inactive)
[43]
  GI50: 42.7 µM (inactive)
[44]
  GI50: 51.8 µM (inactive)
[45]
  GI50: 19.5 µM (inactive)
[46]
  GI50: 50.8 µM (inactive)
[47]
  GI50: 43 µM (inactive)
[48]
  GI50: 31.6 µM (inactive)
[49]
  GI50: 42.6 µM (inactive)
[50]
  GI50: 24.5 µM (inactive)
[51]
  GI50: 29.4 µM
[52]
  GI50: 64.6 µM (inactive)
[55]
  GI50: 45.7 µM (inactive)
